The subject of data set [1] is CAR-expressing, transduced T cells. In words: CART proliferation in co-culture with Nalm-6 cells in presence of RAD001. To be noted: CARTs co-cultured with Nalm-6 cells, different concentrations of RAD001, 4 days. The class given is cell-based. As to the method: CARTs were co-cultured with Nalm-6 cells in the presence of different concentrations of RAD001. The number of CAR-positive CD3-positive T cells (black) and total T cells (gray) was assessed after 4 days of co-culture.

For data set [2], the system named is humanized CD19 CART cells. In words: In vivo proliferation of humanized CD19 CART cells with and without RAD001. To be noted: 0.003 mg/kg daily with huCTL019; CD4+ and CD8+ CAR T cells. As for the experimental part: FIGS. 57A and 57B show in vivo proliferation of humanized CD19 CART cells with and without RAD001 dosing. […] Circles denote PBS; squares denote huCTL019; triangles denote huCTL019 with 3 mg/kg RAD001; inverted triangles denote huCTL019 with 0.3 mg/kg RAD001; diamonds denote huCTL019 with 0.03 mg/kg RAD001; and circles denote huCTL019 with 0.003 mg/kg RAD001.

The test system of data set [3] is huCART19 cells co-cultured with Nalm-6. Put plainly: Effect of RAD001 on CART proliferation, 4 day co-culture. The class given is cell-based, human. As to the method: To evaluate the functionality of CARTs, the T cells are thawed and counted, and viability is assessed by Cellometer. The number of CAR-positive cells in each culture is normalized using non-transduced T cells (UTD). The impact of RAD001 on CARTs was tested in titrations with RAD001, starting at 50 nM. The target cell line used in all co-culture experiments is Nalm-6, a human pre-B cell acute lymphoblastic leukemia (ALL) cell line expressing CD19 and transduced to express luciferase.
For measuring the proliferation of CARTs, T cells are cultured with target cells at a ratio of 1:1. The assay is run for 4 days, when cells are stained for CD3, CD4, CD8 and CAR expression. The number of T cells is assessed by flow cytometry using counting beads as reference.

Data set [4] has as its system NALM6-luc tumors. Put plainly: RAD001 alone on NALM6-luc tumor growth. The class given is in vivo, NSG mice. To be noted: daily oral dosing of RAD001 alone; FIG. 55. As to the method:
NALM6-luc cells: The NALM6 human acute lymphoblastic leukemia (ALL) cell line was developed from the peripheral blood of a patient with relapsed ALL. The cells were then tagged with firefly luciferase. These suspension cells grow in RPMI supplemented with 10% heat inactivated fetal bovine serum.
Mice: 6 week old NSG (NOD.Cg-Prkdc^scidIl2rg^tmIWjl/SzJ) mice were received from the Jackson Laboratory (stock number 005557).
Tumor implantation: NALM6-luc cells were grown and expanded in vitro in RPMI supplemented with 10% heat inactivated fetal bovine serum. The cells were then transferred to a 15 ml conical tube and washed twice with cold sterile PBS. NALM6-luc cells were then counted and resuspended at a concentration of 10×10^6 cells per milliliter of PBS. The cells were placed on ice and immediately (within one hour) implanted in the mice. NALM6-luc cells were injected intravenously via the tail vein in a 100 μl volume, for a total of 1×10^6 cells per mouse.
(§1) RAD001 dosing: A concentrated micro-emulsion of 50 mg equal to 1 mg RAD001 was formulated and then resuspended in D5W (dextrose 5% in water) at the time of dosing. Mice were orally dosed daily (via oral gavage) with 200 μl of the desired doses of RAD001.

A short description of data set [5]: RAD001 PK analysis in tumor bearing mice. The class given is in vivo, NSG mice. To be noted: for concentration at 24 h: NSG, mouse, whole blood. As for the experimental part: as §1
PK analysis: Mice were dosed daily with RAD001 starting 7 days post tumor implantation. Dosing groups were as follows: 0.3 mg/kg, 1 mg/kg, 3 mg/kg, and 10 mg/kg. Mice were bled on days 0 and 14 following the first and last dose of RAD001, at the following time points for PK analysis: 15 minutes, 30 minutes, 1 hour, 2 hours, 4 hours, 8 hours, 12 hours, and 24 hours.

Data set [6] relates to huCAR19 CAR T cells. Put plainly: CAR T cell expansion in vivo with RAD001 (FACS). On the set-up: species or system NSG mice. To be noted: lowest doses of RAD001, daily oral; FIG. 57. As to the method:
CAR T cell dosing: Mice were administered 5×10^6 CAR T cells 7 days after tumor implantation. Cells were partially thawed in a 37 degree Celsius water bath and then completely thawed by the addition of 1 ml of cold sterile PBS to the tube containing the cells. The thawed cells were transferred to a 15 ml falcon tube and adjusted to a final volume of 10 mls with PBS. The cells were washed twice at 1000 rpm for 10 minutes each time and then counted on a hemocytometer. T cells were then resuspended at a concentration of 50×10^6 CAR T cells per ml of cold PBS and kept on ice until the mice were dosed. The mice were injected intravenously via the tail vein with 100 μl of the CAR T cells for a dose of 5×10^6 CAR T cells per mouse. Eight mice per group were treated either with 100 μl of PBS alone (PBS), or humanized CD19 CAR T cells.
as §1
Based on these doses, huCAR19 CAR T cells were dosed with and without RAD001 to determine the proliferative ability of these cells. The highest dose used was 3 mg/kg based on the levels of RAD001 in the blood 24 hours after dosing. […] Mice were monitored via FACS for T cell expansion.

Data set [7] deals with hsCD33 (Homo sapiens, UniProt P20138). Put plainly: Cell surface scFv on JNL cells detected with recombinant Fc-tagged hsCD33. The class given is binding. Conditions: recombinant Fc-tagged hsCD33, PE secondary antibody; relative to GFP or CD19 scFv JNL cells. As to the method: FIG. 27 is an image depicting the cell surface expression of scFvs on a Jurkat T cell line, which contains a luciferase reporter driven by an NFAT-regulated promoter (termed JNL cells). JNL cells were transduced with a lentiviral vector expressing a cDNA encoding GFP, a scFv that binds to CD19, or cDNAs that encode an scFv, which was raised against hsCD33. The cell surface expression of individual scFv's on JNLs was detected by incubating cells with recombinant Fc-tagged hsCD33 followed by incubation with an Fc-specific secondary antibody conjugated to phycoerythrin.
To depict the cell surface expression of scFv's on a Jurkat T cell line, which contains a luciferase reporter driven by an NFAT-regulated promoter (termed JNL cells), JNL cells were transduced with a lentiviral vector expressing a cDNA encoding GFP, an scFv that binds to CD19, or cDNAs that encode an scFv, which was raised against hsCD33 (FIG. 27). The cell surface expression of individual scFv's on JNLs was detected by incubating cells with recombinant Fc-tagged hsCD33 followed by incubation with an Fc-specific secondary antibody conjugated to phycoerythrin.

In data set [8] the test system is protein L. In words: Protein L binding of scFv on JNL cells. To be noted: data not shown.

Like-named read-outs stand apart in the source and are kept apart here.

Sequence of hsCD33 (P20138 18-259 limits assumed): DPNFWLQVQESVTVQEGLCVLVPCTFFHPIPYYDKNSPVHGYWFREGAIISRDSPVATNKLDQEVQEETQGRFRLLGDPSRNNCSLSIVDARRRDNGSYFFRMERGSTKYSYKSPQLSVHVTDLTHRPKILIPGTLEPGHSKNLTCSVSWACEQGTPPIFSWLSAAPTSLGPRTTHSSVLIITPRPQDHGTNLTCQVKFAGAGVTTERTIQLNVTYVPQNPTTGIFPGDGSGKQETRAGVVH

Turning to `CO[C@H]1C[C@@H]2CC[C@@H](C)[C@@](O)(O2)C(=O)C(=O)N2CCCC[C@H]2C(=O)O[C@H]([C@H](C)C[C@@H]2CC[C@@H](OCCO)[C@H](OC)C2)CC(=O)[C@H](C)/C=C(\C)[C@@H](O)[C@@H](OC)C(=O)[C@H](C)C[C@H](C)/C=C/C=C/C=C/1C` [RAD001, (1R,9S,12S,15R,16E,18R,19R,21R,23 S,24E,26E,28E,30S,32S,35R)-1,18-dihydroxy-12-{(1R)-2-[(1 S,3R,4R)-4-(2-hydroxyethoxy)-3-methoxycyclohexyl]-1-methylethyl}-19,30-dimethoxy-15,17,21,23,29,35-hexamethyl-11,36-dioxa-4-aza-tricyclo[30.3.1.04,9]hexatriaconta-16,24,26,28-tetraene-2,3,10,14,20-pentaone], the “Proliferation of CAR-expressing, transduced T cells” value in data set [1] was “enhanced by low doses of RAD001”. For the same molecule, the “CAR T cell proliferation in vivo” value in data set [2] is listed as “enhancement in CAR T cell proliferation, above the normal level of huCAR19 proliferation”. Moreover, the “Proliferation of huCART19 cells” value in data set [3] (0.0032 and 0.016 nM RAD001, 4 day co-culture with Nalm-6, FIG. 54) is “proliferation was higher than observed without the addition of RAD001”. Moreover, in data set [3] (4 day co-culture with Nalm-6), the “RAD001 concentration at which huCART19 cells expanded” value was “less than 0.016 nM”. The “Growth of NALM6-luc tumors” value in data set [4] is reported as “did not have an impact on the growth of NALM6-luc tumors”. Moreover, the concentration at 24 h in data set [5] (oral, 0.3 mg/kg, 24 hours after the final dose of RAD001, read-out: Concentration of RAD001) was above 10 nM; in data set [5] (24 hours after dosing, 0.3 mg/kg oral, day 0 and day 14, read-out: RAD001 concentrations in the blood) it was above 10 nM. In addition, the “Stability in the blood” value in data set [5] (tumor bearing mice, FIGS. 56A, 56B) is recorded as “fairly stable in the blood”. Further, the “Proliferation of the CAR T cells in vivo” value in data set [6] is reported as “enhanced proliferation of the CAR T cells”.

B1: CD33-8: fully human anti-CD33 scFv CAR with 4-1BB and CD3zeta; full CAR SEQ ID NO: 55, scFv SEQ ID NO: 46 (protein)
chain: MALPVTALLLPLALLLHAARPQVQLVQSGAEVKKPGASVRVSCKASGYMFTDFFIHWVRQAPGQGLEWMGWINPNSGVTKYAQKFQGRVTMTRNTSISTAYMELSSLRSEDTAVYYCATWYSSGWYGIANIWGQGTMVTVSSASGGGGSGGGGSGGGGSDIQLTQSPSSLSASVGDRVTITCQASHDISNYLHWYQQKPGKAPKLLIYDASNLETGVPSRFTGSGSGTDFTLTIRSLQPEDVAAYYCQQSDDLPHTFGQGTKVDIKTTTPAPRPPTPAPTIASQPLSLRPEACRPAAGGAVHTRGLDFACDIYIWAPLAGTCGVLLLSLVITLYCKRGRKKLLYIFKQPFMRPVQTTQEEDGCSCRFPEEEEGGCELRVKFSRSADAPAYKQGQNQLYNELNLGRREEYDVLDKRRGRDPEMGGKPRRKNPQEGLYNELQKDKMAEAYSEIGMKGERRRGKGHDGLYQGLSTATKDTYDALHMQALPPR
Turning to B1, in data set [7], the “Binding to hsCD33 (cell surface scFv on JNL cells)” value is listed as “lacked appreciable binding to either hsCD33 or protein L”. Further, in data set [8], the “Binding to protein L” value is listed as “lacked appreciable binding to either hsCD33 or protein L”.

Values taken from US12338287B2, “Treatment of cancer using a CD33 chimeric antigen receptor” (Novartis AG, priority 2014, dated 2025).
